# What was measured:
# [1] = test system: Homozygous AAD-1 (v3) gene T4 plants (Arabidopsis); assay: T1 Arabidopsis postemergence herbicide dose response, AAD-1 comparison; format: in vivo, Arabidopsis thaliana
# Source text: (§1) T1 plants were then randomly assigned to various rates of 2,4-D. For Arabidopsis, 50 g ae/ha 2,4-D is an effective dose to distinguish sensitive plants from ones with meaningful levels of resistance. Elevated rates were also applied to determine relative levels of resistance (50, 200, 800, or 3200 g ac/ha). Tables 10 and 11 show comparisons drawn to an aryloxyalkanoate herbicide resistance gene (AAD-1 (v3)) previously described in PCT/US2005/014737.
# (§2) All auxin herbicide applications were made using the DeVilbiss sprayer as described above to apply 703 L/ha spray volume (0.4 ml solution/3-inch pot) or applied by track sprayer in a 187 L/ha spray volume. 2,4-D used was either technical grade (Sigma, St. Louis, Mo.) dissolved in DMSO and diluted in water (<1% DMSO final concentration) or the commercial dimethylamine salt formulation (456 g ac/L, NuFarm, St Joseph, Mo.). Dichlorprop used was commercial grade formulated as potassium salt of R-dichlorprop (600 g ai/L, AH Marks). As herbicide rates increased beyond 800 g ae/ha, the pH of the spray solution became exceedingly acidic, burning the leaves of young, tender Arabidopsis plants and complicating evaluation of the primary effects of the herbicides. It became standard practice to apply these high rates of herbicides in 200 mM HEPES buffer, pH 7.5.
# The first Arabidopsis transformations were conducted using AAD-12 (v1) (plant optimized gene). T1 transformants were first selected from the background of untransformed seed using a glufosinate selection scheme. Over 300,000 T1 seed were screened and 316 glufosinate resistant plants were identified (PAT gene), equating to a transformation/selection frequency of 0.10% which lies in the normal range of selection frequency of constructs where PAT+Liberty are used for selection. T1 plants selected above were subsequently transplanted to individual pots and sprayed with various rates of commercial aryloxyalkanoate herbicides. Table 11 compares the response of AAD-12 (v1) and control genes to impart 2,4-D resistance to Arabidopsis T1 transformants. Response is presented in terms of % visual injury 2 WAT. […] Since each T1 is an independent transformation event, one can expect significant variation of individual T1 responses within a given rate. An arithmetic mean and standard deviation is presented for each treatment. The range in individual response is also indicated in the last column for each rate and transformation. PAT/Cry1F-transformed Arabidopsis served as an auxin-sensitive transformed control. The AAD-12 (v1) gene imparted herbicide resistance to individual T1 Arabidopsis plants. Within a given treatment, the level of plant response varied greatly and can be attributed to the fact each plant represents an independent transformation event. Of important note, at each 2,4-D rate tested, there were individuals that were unaffected while some were severely affected. […] Injury levels tend to be greater and the frequency of uninjured plants was lower at elevated rates up to 3,200 g ae/ha (or 6× field rate). Also at these high rates, the spray solution becomes highly acidic unless buffered. Arabidopsis grown mostly in the growth chamber has a very thin cuticle and severe burning effects can complicate testing at these elevated rates. Nonetheless, many individuals have survived 3.200 g ac/ha 2,4-D with little or no injury.
# [2] = test system: AAD-12 (v1) gene T1 transformants (Arabidopsis); assay: T1 Arabidopsis postemergence herbicide dose response, % visual injury; format: in vivo, Arabidopsis thaliana
# Experimental: Freshly harvested T1 seed [AAD-12 (v1) gene] was allowed to dry for 7 days at room temperature. T1 seed was sown in 26.5×51-cm germination trays (T.O. Plastics Inc., Clearwater, Minn.), each receiving a 200 mg aliquots of stratified T, seed (˜10,000 seed) that had previously been suspended in 40 ml of 0.1% agarose solution and stored at 4° C. for 2 days to complete dormancy requirements and ensure synchronous seed germination.
# Sunshine Mix LP5 (Sun Gro Horticulture Inc., Bellevue, Wash.) was covered with fine vermiculite and subirrigated with Hoagland's solution until wet, then allowed to gravity drain. Each 40 ml aliquot of stratified seed was sown evenly onto the vermiculite with a pipette and covered with humidity domes (KORD Products, Bramalea. Ontario, Canada) for 4-5 days. Domes were removed 1 day prior to initial transformant selection using glufosinate postemergence spray (selecting for the co-transformed PAT gene).
# Seven days after planting (DAP) and again 11 DAP, T1 plants (cotyledon and 2-4-lf stage, respectively) were sprayed with a 0.2% solution of Liberty herbicide (200 g ai/L glufosinate, Bayer Crop Sciences, Kansas City, Mo.) at a spray volume of 10 ml/tray (703 L/ha) using a DeVilbiss compressed air spray tip to deliver an effective rate of 280 g ai/ha glufosinate per application. Survivors (plants actively growing) were identified 4-7 days after the final spraying and transplanted individually into 3-inch pots prepared with potting media (Metro Mix 360). Transplanted plants were covered with humidity domes for 3-4 days and placed in a 22° C. growth chamber as before or moved to directly to the greenhouse. Domes were subsequently removed and plants reared in the greenhouse (22±5° C., 50±30% RH, 14 h light:10 dark, minimum 500 μE/m^2 s^1 natural+supplemental light) at least 1 day prior to testing for the ability of AAD-12 (v1) (plant optimized gene) to provide phenoxy auxin herbicide resistance.
# as §1, §2
# The first Arabidopsis transformations were conducted using AAD-12 (v1) (plant optimized gene). T1 transformants were first selected from the background of untransformed seed using a glufosinate selection scheme. Over 300,000 T1 seed were screened and 316 glufosinate resistant plants were identified (PAT gene), equating to a transformation/selection frequency of 0.10% which lies in the normal range of selection frequency of constructs where PAT+Liberty are used for selection. T1 plants selected above were subsequently transplanted to individual pots and sprayed with various rates of commercial aryloxyalkanoate herbicides. […]
# [3] = 50 g ae/ha 2,4-D postemergence, 2 WAT
# [4] = 200 g ae/ha 2,4-D postemergence, 2 WAT
# [5] = 800 g ae/ha 2,4-D postemergence, 2 WAT
# [6] = 3200 g ae/ha 2,4-D postemergence, 2 WAT
# [7] = 50 g ae/ha R-dichlorprop postemergence
# [8] = 200 g ae/ha R-dichlorprop postemergence
# [9] = 800 g ae/ha R-dichlorprop postemergence
# [10] = 3200 g ae/ha R-dichlorprop postemergence
compound,measurement,setting,value
"O=C(O)COc1ccc(Cl)cc1Cl [2,4-D, 2,4-dichlorophenoxyacetic acid]",% Injury 20-40% (number of individuals),[1]; [3],0
same,% Injury <20% (number of individuals),[1]; [3],10
same,% Injury >40% (number of individuals),[1]; [3],0
same,% Injury Ave,[1]; [3],0%
same,% Injury 20-40% (number of individuals),[1]; [4],0
same,% Injury <20% (number of individuals),[1]; [4],10
same,% Injury >40% (number of individuals),[1]; [4],0
same,% Injury Ave,[1]; [4],0%
same,% Injury 20-40% (number of individuals),[1]; [5],0
same,% Injury <20% (number of individuals),[1]; [5],10
same,% Injury >40% (number of individuals),[1]; [5],0
same,% Injury Ave,[1]; [5],0%
same,% Injury 20-40% (number of individuals),[1]; [6],1
same,% Injury <20% (number of individuals),[1]; [6],9
same,% Injury >40% (number of individuals),[1]; [6],0
same,% Injury Ave,[1]; [6],2%
same,% Injury 20-40% (number of individuals),[2]; [3],0
same,% Injury <20% (number of individuals),[2]; [3],6
same,% Injury >40% (number of individuals),[2]; [3],2
same,% Injury Ave,[2]; [3],16%
same,% Injury 20-40% (number of individuals),[2]; [4],1
same,% Injury <20% (number of individuals),[2]; [4],6
same,% Injury >40% (number of individuals),[2]; [4],1
same,% Injury Ave,[2]; [4],11%
same,% Injury 20-40% (number of individuals),[2]; [5],2
same,% Injury <20% (number of individuals),[2]; [5],5
same,% Injury >40% (number of individuals),[2]; [5],1
same,% Injury Ave,[2]; [5],15%
same,% Injury 20-40% (number of individuals),[2]; [6],0
same,% Injury <20% (number of individuals),[2]; [6],8
same,% Injury >40% (number of individuals),[2]; [6],0
"C[C@@H](Oc1ccc(Cl)cc1Cl)C(=O)O [(R)-dichlorprop, R-2,4-dichlorophenoxypropionic acid]",% Injury 20-40% (number of individuals),[1]; [7],0
same,% Injury <20% (number of individuals),[1]; [7],10
same,% Injury >40% (number of individuals),[1]; [7],0
same,% Injury Ave,[1]; [7],0%
same,% Injury 20-40% (number of individuals),[1]; [8],0
same,% Injury <20% (number of individuals),[1]; [8],10
same,% Injury >40% (number of individuals),[1]; [8],0
same,% Injury Ave,[1]; [8],0%
same,% Injury 20-40% (number of individuals),[1]; [9],0
same,% Injury <20% (number of individuals),[1]; [9],10
same,% Injury >40% (number of individuals),[1]; [9],0
same,% Injury Ave,[1]; [9],0%
same,% Injury 20-40% (number of individuals),[1]; [10],0
same,% Injury <20% (number of individuals),[1]; [10],10
same,% Injury >40% (number of individuals),[1]; [10],0
same,% Injury Ave,[1]; [10],0%
same,% Injury 20-40% (number of individuals),[2]; [7],0
same,% Injury <20% (number of individuals),[2]; [7],0
same,% Injury >40% (number of individuals),[2]; [7],8
same,% Injury Ave,[2]; [7],63%
same,% Injury 20-40% (number of individuals),[2]; [8],0
same,% Injury <20% (number of individuals),[2]; [8],0
same,% Injury >40% (number of individuals),[2]; [8],8
same,% Injury Ave,[2]; [8],85%
same,% Injury 20-40% (number of individuals),[2]; [9],0
same,% Injury <20% (number of individuals),[2]; [9],0
same,% Injury >40% (number of individuals),[2]; [9],8
same,% Injury Ave,[2]; [9],96%
same,% Injury 20-40% (number of individuals),[2]; [10],0
same,% Injury <20% (number of individuals),[2]; [10],0
same,% Injury >40% (number of individuals),[2]; [10],8
same,% Injury Ave,[2]; [10],98%
